Experimental data from publication PMC6108835, “Target-Based Discovery of an Inhibitor of the Regulatory Phosphatase PPP1R15B” (Cell, 2018).
“And” between values parts separate entries of the source, which are not always exact repeats. Identical values can stand only once. Peptide text beside a SMILES is read from it. * marks the point of attachment. Cbz = O=C(OCc1ccccc1)*

Columns and labels:
[1] = target: T1, R15B (Homo sapiens, UniProt Q5SWA1); assay: R15B levels on immunoblots of HeLa cell lysates; type: cell-based; conditions: HeLa cells, Raphin1 10 μM; MG-132 10 μM; NSM-873 or CB-5083 1 μM
T1 construct: endogenous in cells; host or cells: HeLa
T1 sequence (Q5SWA1 1-713): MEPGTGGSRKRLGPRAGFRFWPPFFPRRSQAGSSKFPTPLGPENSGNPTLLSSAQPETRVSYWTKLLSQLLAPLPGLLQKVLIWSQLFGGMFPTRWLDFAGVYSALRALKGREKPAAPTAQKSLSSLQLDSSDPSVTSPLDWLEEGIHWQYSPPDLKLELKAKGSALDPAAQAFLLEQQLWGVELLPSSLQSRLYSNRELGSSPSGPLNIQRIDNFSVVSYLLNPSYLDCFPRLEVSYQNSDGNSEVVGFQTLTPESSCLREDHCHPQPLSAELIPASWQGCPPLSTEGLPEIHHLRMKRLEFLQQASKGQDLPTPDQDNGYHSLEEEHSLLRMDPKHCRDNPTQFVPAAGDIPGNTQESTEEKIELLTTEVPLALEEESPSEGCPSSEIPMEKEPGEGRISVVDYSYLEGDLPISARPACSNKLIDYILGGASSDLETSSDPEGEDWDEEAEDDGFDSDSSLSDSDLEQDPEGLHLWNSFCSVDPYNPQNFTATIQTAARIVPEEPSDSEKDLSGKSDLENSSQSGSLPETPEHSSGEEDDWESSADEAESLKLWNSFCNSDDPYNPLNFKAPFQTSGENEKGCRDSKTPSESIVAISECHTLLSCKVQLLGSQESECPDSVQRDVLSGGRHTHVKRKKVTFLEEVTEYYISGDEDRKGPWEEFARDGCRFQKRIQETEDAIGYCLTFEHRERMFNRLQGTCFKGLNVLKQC
Procedure: HeLa or MEF cells (90,000 cells/mL) were plated in 12-well plates (1 mL/well). The following day cells were treated as indicated; the medium was removed, fresh medium containing compound added and incubated at 37°C for the times indicated. The time course was performed in reverse order to facilitate collecting all samples at the same time. At the end of treatment cells were washed two times with ice-cold PBS and lysed in 150 μL Laemmli Buffer. […] Proteins were transferred to the nitrocellulose membrane using the iBlot 2 system (ThermoFisher Scientific). Membrane was blocked in 5% skimmed milk for 30 min and then probed with primary antibodies followed by incubation with the appropriate horseradish peroxidase-conjugated secondary antibodies (Promega). Proteins were visualized using ECL Prime (GE Healthcare) and imaged in the Chemi-Smart 5000 (Vilber-Lourmat, France) or ChemiDoc Touch (BioRad). Bands were quantified using ImageJ (NIH, USA).

[2] = target: T2, PP1c (Homo sapiens, UniProt P36873); assay: PP1c catalytic activity assay (DiFMUP, EnzChek); conditions: his-PP1c 30 nM
Procedure: Residual activity of PP1c was measured using the EnzChek Phosphatase Assay Kit (ThermoFisher Scientific) according to the supplier’s instructions, with minor modifications.

[3] = target: R15A (Homo sapiens, UniProt O75807); assay: Limited trypsin digestion of R15A; design: cDNAs encoding amino acids 325-636 of R15A and 340-698 of R15B were cloned into pMAL-c5x; made in house; host or cells: E. coli BL21-Gold (DE3) pLysS; conditions: R15 3 μM, compound 100 μM, trypsin 5 nM, 5 min, 22°C
Procedure: (§1) Reactions were initiated by addition of 5 nM of trypsin from bovine pancreas (Sigma-Aldrich), made up in PBS, and allowed to proceed for 5 min at 22°C, with shaking at 350 rpm. […] Proteins were visualized by staining with InstantBlue Protein Stain (Expedeon).

[4] = system: eIF2α phosphorylation (HeLa cells); assay: Protein analyses on immunoblots, HeLa cells; type: cell-based, human; conditions: unstressed, 10 μM, 0-10 h
Procedure: HeLa or MEF cells (90,000 cells/mL) were plated in 12-well plates (1 mL/well). The following day cells were treated as indicated; the medium was removed, fresh medium containing compound added and incubated at 37°C for the times indicated. The time course was performed in reverse order to facilitate collecting all samples at the same time. At the end of treatment cells were washed two times with ice-cold PBS and lysed in 150 μL Laemmli Buffer. Lysates were transferred to 1.5 mL eppendorf tubes, boiled at 95°C for 5 min, sonicated and resolved on Bolt SDS-PAGE 4%–12% Bis-Tris gels (ThermoFisher Scientific). Proteins were transferred to the nitrocellulose membrane using the iBlot 2 system (ThermoFisher Scientific). Membrane was blocked in 5% skimmed milk for 30 min and then probed with primary antibodies followed by incubation with the appropriate horseradish peroxidase-conjugated secondary antibodies (Promega). Proteins were visualized using ECL Prime (GE Healthcare) and imaged in the Chemi-Smart 5000 (Vilber-Lourmat, France) or ChemiDoc Touch (BioRad). Bands were quantified using ImageJ (NIH, USA). The following primary antibodies were used: e-IF2α-P (ThermoFisher Scientific (#44-728G), 1:1,000), e-IF2α (Abcam (#ab5369), 1:1,000), tubulin (Sigma-Aldrich (#T5168), 1:4,000), BiP (BD Biosciences PharMingen (#610978), 1:1,000), ATF4 (Santa Cruz Biotechnology (#sc-200), 1:500), Ppp1r15a (Proteintech (#10449-1-AP), 1:1,000), Ppp1r15b (Proteintech (#14634-1-AP), 1:1,000) and CHOP (ABR Affinity BioReagents (#MA1-250), 1:1,000).

[5] = system: HeLa cells; assay: Assessment of translation rates (35S-methionine), HeLa cells; type: cell-based, human; conditions: 10 μM; for Label (%), newly synthesized proteins (35S-methionine): HeLa, 0 h = 100
Procedure: HeLa or MEF cells (90,000 cells/mL) were plated in 12-well plates (1 mL/well). The following day cells were treated as indicated; the medium was removed, fresh medium containing compound added and incubated at 37°C for the times indicated. The time course was performed in reverse order to facilitate labeling all samples at the same time. After the treatment the cells were labeled with 100 μCi/mL ^35S-methionine (Hartmann Analytic) for 10 min at 37°C (300 μL fresh medium containing 3 μL ^35S-methionine was added to each well). Note that cells were not starved in methionine-free media before labeling with ^35S-methionine for monitoring protein synthesis. The labeled cells were then washed twice with ice-cold PBS and lysed in 120 μL Laemmli Buffer. Lysates were transferred to 1.5 mL eppendorf tubes, boiled at 95°C for 5 min, sonicated and resolved on Bolt SDS-PAGE 4%–12% Bis-Tris gels (ThermoFisher Scientific). Gels were then stained with InstantBlue (Expedeon) and after the gels had been imaged they were transferred to a 20% ethanol, 7% acetic acid, 4% glycerol solution for 10 min. This was to prevent the gels from cracking while drying. The gels were transferred to filter paper and dried using a gel dryer. The gels were then exposed to a Storage Phosphor Screen (GE Healthcare) and analyzed by phosphorimaging using a Typhoon Imager Scanner (GE Healthcare).

[6] = target: T2, PP1c; assay: SPR, compounds binding to PP1c alone immobilized on streptavidin chip; design: cDNA encoding for human PP1cγ (aa 1-322) was cloned into two baculovirus transfer vectors; made in house; host or cells: Sf9 insect cells (baculovirus); conditions: PP1c immobilized on SA chip
Procedure: (§2) Small molecules were stored as 50 mM stock solutions in 100% DMSO. […] If necessary the concentration range was adjusted to accurately determine the KD depending on the initial results. […] This was followed by 1 min stabilization period, to wash off any unspecific binding. […] After each dilution series, the surface was regenerated using 3 M NaCl for 90 s. […] In order to be able to correct for small variations in DMSO concentration between samples, eight solvent samples ranging from 0.06 to 8% DMSO were injected every 50th cycle. The flow cell temperature was 20°C.

[7] = target: T3, R15B-PP1c holophosphatase (R15B^340-698-PP1c) (Homo sapiens, UniProt Q5SWA1); assay: Holophosphatase SPR, compounds binding to reconstituted R15B-PP1c; conditions: SPR, up to 25 μM
T3 construct: cDNAs encoding amino acids 325-636 of R15A and 340-698 of R15B were cloned into pMAL-c5x; made in house; host or cells: R15B: E. coli BL21-Gold (DE3) pLysS; bio-PP1c: Sf9 insect cells (baculovirus)
Procedure: as §2

[8] = target: T4, R15B (Homo sapiens, UniProt Q5SWA1); assay: Limited trypsin digestion of R15B; conditions: R15 3 μM, compound 100 μM, trypsin 5 nM, 5 min, 22°C
T4 construct: cDNAs encoding amino acids 325-636 of R15A and 340-698 of R15B were cloned into pMAL-c5x; made in house; host or cells: E. coli BL21-Gold (DE3) pLysS
Procedure: as §1

[9] = target: T5, R15A-PP1c holophosphatase (R15A^325-636-PP1c) (Homo sapiens, UniProt O75807); assay: Holophosphatase SPR, compounds binding to reconstituted R15A-PP1c; conditions: for Binding to R15A-PP1c (in words): SPR, up to 25 μM
T5 construct: cDNAs encoding amino acids 325-636 of R15A and 340-698 of R15B were cloned into pMAL-c5x; made in house; host or cells: R15A: E. coli BL21-Gold (DE3) pLysS; bio-PP1c: Sf9 insect cells (baculovirus)
Procedure: as §2

[10] = system: liver; assay: Oil Red O staining of liver (steatosis); type: in vivo, mouse; conditions: wild-type mice, single dose 40 mg/kg; Raphin1 also 2 mg/kg for 10 weeks
Procedure: Treatment- and test-naive C57BL/6J males and females were used. Mice received a single dose of Raphin1 or cycloheximide (CHX, Sigma-Aldrich) at 40 mg/kg at 3 months of age or were treated chronically with Raphin1 at 2 mg/kg from 4 weeks of age for 10 weeks before the analysis. Mice were culled by cervical dislocation, liver was extracted, fresh-frozen in the O.C.T. compound (VWR International) and kept at −80°C until use. Oil Red O staining was performed on 10 μm thick frozen cryosections (Leica CM1850). Sections were washed in 60% propanol and stained for 20 min at room temperature with filtered 0.33% Oil Red O solution (VWR International). After rinsing with distilled water sections were counterstained with hematoxylin (VWR, diluted 1:15) for 1 min. Images were acquired with a 40X objective using SCN400F scanner (Leica).

T2 sequence (P36873 1-322): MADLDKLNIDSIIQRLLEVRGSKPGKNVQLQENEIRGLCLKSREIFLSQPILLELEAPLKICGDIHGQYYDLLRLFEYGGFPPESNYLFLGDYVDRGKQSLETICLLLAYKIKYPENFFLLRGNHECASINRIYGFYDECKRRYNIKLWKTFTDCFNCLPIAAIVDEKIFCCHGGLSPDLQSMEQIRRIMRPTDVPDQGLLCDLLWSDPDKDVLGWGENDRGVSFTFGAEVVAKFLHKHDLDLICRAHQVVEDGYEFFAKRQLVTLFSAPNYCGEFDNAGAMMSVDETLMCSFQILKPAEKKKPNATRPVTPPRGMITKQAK
T5 sequence (O75807 325-636, stated change not applied): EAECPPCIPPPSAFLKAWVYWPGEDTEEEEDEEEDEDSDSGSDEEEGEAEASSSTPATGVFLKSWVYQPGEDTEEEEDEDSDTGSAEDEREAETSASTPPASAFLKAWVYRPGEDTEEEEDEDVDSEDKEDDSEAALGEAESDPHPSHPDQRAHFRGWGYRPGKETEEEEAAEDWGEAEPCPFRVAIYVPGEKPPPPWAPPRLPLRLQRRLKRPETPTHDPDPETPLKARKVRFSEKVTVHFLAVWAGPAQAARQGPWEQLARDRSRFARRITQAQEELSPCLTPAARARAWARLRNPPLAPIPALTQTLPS
T5 sequence (P36873 1-322 partner): as the sequence (P36873 1-322) above
T3 sequence (P36873 1-322 partner limits assumed, one chain of several): as the sequence (P36873 1-322) above
R15A, sequence (O75807 325-636, stated change not applied): as the sequence (O75807 325-636, stated change not applied) above

## Cc1cc2c(C(N)=O)cccc2n1-c1nc2c(c(NCc3ccccc3)n1)COCC2 [CB-5083]
[1]
  Effect of co-treatment on the Raphin1-induced decrease in R15B: essentially abrogated

## COC[C@@H]([C@H](O)[C@H](O)C(=O)NCC[C@H](C)c1nc(/C=C/C[C@@H]2O[C@]3(C[C@@H](O)[C@@H]2C)O[C@H]([C@H](C[C@H](O)[C@H](C)[C@H](O)[C@H](C)/C=C(C)/C(C)=C/C=C/C(C)=C\C#N)OC)[C@H](OP(=O)(O)O)C3(C)C)co1)N(C)C [Calyculin A]
[2]
  Inhibition of PP1c (dephosphorylation of difluoro-4-methylumbelliferyl phosphate): inhibited

## N=C(N)N/N=C/c1c(Cl)cccc1Cl [GBZ, Guanabenz]
[3]
  Protease sensitivity of R15A (limited proteolysis, conformational change): increased resistance to limited-proteolysis
[4]
  eIF2α phosphorylation: no measurable effects
[5]; HeLa cells, unstressed
  Protein synthesis (in words): no measurable effects
[5]; 1 h
  Label (%), newly synthesized proteins (35S-methionine): 94%
[5]; 2 h
  Label (%), newly synthesized proteins (35S-methionine): 92%
[5]; 5 h
  Label (%), newly synthesized proteins (35S-methionine): 103%
[5]; 7.5 h
  Label (%), newly synthesized proteins (35S-methionine): 96%
[5]; 10 h
  Label (%), newly synthesized proteins (35S-methionine): 97%
[6]
  Binding to PP1c alone (in words): did not measurably bind
[7]
  Binding to R15B-PP1c (in words): did not bind or only weakly bound
[8]
  Protease sensitivity of R15B (limited proteolysis, conformational change): neither GBZ nor Sephin1 affected
[9]
  Binding to R15A-PP1c (in words): strongly bound
[9]; holophosphatase reconstituted on SA chip, 20°C, mean ± SD, read-out: KD, steady-state affinity for R15A-PP1c
  Kd: 122 nM and < 10000 nM
[2]
  Inhibition of PP1c (dephosphorylation of difluoro-4-methylumbelliferyl phosphate): did not inhibit

## CC(C)C[C@@H](C=O)NC(=O)[C@H](CC(C)C)NC(=O)[C@H](CC(C)C)NC(=O)OCc1ccccc1 [MG-132] (Cbz-Leu-Leu-Leu-aldehyde)
[1]
  Effect of co-treatment on the Raphin1-induced decrease in R15B: prevented

## Cc1cc(OCc2nnc(SC3CCCC3)n2-c2cccnc2)ccc1-c1ccc(S(C)(=O)=O)cc1 [NSM-873]
[1]
  Effect of co-treatment on the Raphin1-induced decrease in R15B: essentially abrogated

## N=C(N)N/N=C/c1ncccc1Cl [compound C3]
[6]
  Binding to PP1c alone (in words): no detectable binding
[7]
  Binding to R15B-PP1c (in words): no detectable binding
[9]
  Binding to R15A-PP1c (in words): no detectable binding

## C[C@@H]1C[C@@H]([C@H](O)CC2CC(=O)NC(=O)C2)C(=O)[C@@H](C)C1 [cycloheximide, Cycloheximide]
[10]
  Liver steatosis (Oil Red O): caused liver steatosis
